Test results from patent publication US20240158392A1 (Janssen Biotech, Inc., priority 2021, published 2024).

Target: SIK2 (Homo sapiens, UniProt Q9H0K1)
Experiment: SIK2 Enzymatic Assay High Version 2 (High ATP)
Assay type: biochemical
Settings: enzyme 6 nM, 6 mM ATP and 400 μM HDAC5tide (each 2× final concentration); 30 minutes pre-incubation, 2 hours; ADP-Glo Max luminescence; read-out: SIK2 high ATP IC50 (μM) (Test Example 2)
How it was run: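 At room temperature, enzyme (6 nM, 2× final) was preincubated with compound for 30 min, then 6 mM ATP and 400 μM HDAC5tide (both 2× final) were added for 2 h. ADP formed was measured by ADP-Glo Max (2 h reagent, 1 h detection) using luminescence.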

Sequence of SIK2 (Q9H0K1 whole entry, species assumed): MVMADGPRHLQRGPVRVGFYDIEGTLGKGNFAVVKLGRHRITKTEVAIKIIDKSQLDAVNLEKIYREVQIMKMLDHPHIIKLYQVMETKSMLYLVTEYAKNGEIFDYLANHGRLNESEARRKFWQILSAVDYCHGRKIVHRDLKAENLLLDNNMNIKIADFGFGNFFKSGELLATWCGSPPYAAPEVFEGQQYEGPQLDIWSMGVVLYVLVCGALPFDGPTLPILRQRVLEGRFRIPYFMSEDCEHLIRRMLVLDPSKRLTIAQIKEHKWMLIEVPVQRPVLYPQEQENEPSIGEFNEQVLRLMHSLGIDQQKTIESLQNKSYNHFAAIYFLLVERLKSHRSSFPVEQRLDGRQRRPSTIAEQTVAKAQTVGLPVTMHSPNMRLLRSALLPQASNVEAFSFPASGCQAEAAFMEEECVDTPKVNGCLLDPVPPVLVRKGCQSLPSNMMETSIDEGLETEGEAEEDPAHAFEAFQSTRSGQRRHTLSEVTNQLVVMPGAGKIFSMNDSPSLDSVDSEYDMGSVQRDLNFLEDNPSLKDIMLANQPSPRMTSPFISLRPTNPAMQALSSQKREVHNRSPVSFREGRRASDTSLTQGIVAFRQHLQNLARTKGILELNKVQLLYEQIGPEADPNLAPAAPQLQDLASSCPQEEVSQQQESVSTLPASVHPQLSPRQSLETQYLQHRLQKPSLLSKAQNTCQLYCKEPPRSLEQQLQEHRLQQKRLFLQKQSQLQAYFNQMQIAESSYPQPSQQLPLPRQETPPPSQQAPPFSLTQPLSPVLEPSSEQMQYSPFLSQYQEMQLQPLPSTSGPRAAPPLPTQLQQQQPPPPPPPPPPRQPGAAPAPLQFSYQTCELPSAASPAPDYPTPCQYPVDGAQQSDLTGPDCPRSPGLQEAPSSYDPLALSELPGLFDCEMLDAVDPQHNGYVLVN

| Compound | IC50 |
| --- | --- |
| Cc1cc(-c2ccn3nc(NC(=O)C4CC4)cc3c2)c(O[C@H]2CC[C@@](O)(c3ccccc3)CC2)cn1 [Example 192, N-(5-(5-(((1r,1r)-4-hydroxy-4-phenylcyclohexyl)oxy)-2-methylpyridin-4-yl)pyrazolo[1,5-a]pyridin-2-yl)cyclopropanecarboxamide] | 0.0612 µM |
| Cc1cc(-c2ccn3nc(NC(=O)C4CC4)cc3c2)c(OC2CCC(O)(C(C)C)CC2)cn1 (stereo not drawn) [Example 196] | 0.00247 µM |
| Cc1cc(-c2ccn3nc(Nc4cc(C)nc(C)n4)cc3c2)c(O[C@H]2CC[C@H](O)CC2)cn1 [Example 198, trans-4-[[4-[2-[(2,6-dimethylpyrimidin-4-yl)amino]pyrazolo[1,5-a]pyridin-5-yl]-6-methyl-3-pyridyl]oxy]cyclohexanol] | 0.00877 µM |
| Cc1cc(-c2ccn3nc(NC(=O)C4CC4)cc3c2)c(OC2CCC(=NO)CC2)cn1 (stereo not drawn) [Example 199, N-[5-[5-(4-hydroxyiminocyclohexoxy)-2-methyl-4-pyridyl]pyrazolo[1,5-a]pyridin-2-yl]cyclopropanecarboxamide] | 0.0502 µM |
| Cc1cc(-c2ccn3nc(Nc4cc(C)nc(C)n4)cc3c2)c(OCC(C)(C)O)cn1 [Example 200, 1-[[4-[2-[(2,6-dimethylpyrimidin-4-yl)amino]pyrazolo[1,5-a]pyridin-5-yl]-6-methyl-3-pyridyl]oxy]-2-methyl-propan-2-ol] | 0.0445 µM |
| Cc1cc(-c2ccn3nc(Nc4cc(C)c(C)nn4)cc3c2)c(OCC(C)(C)O)cn1 [Example 201, 1-[[4-[2-[(5,6-dimethylpyridazin-3-yl)amino]pyrazolo[1,5-a]pyridin-5-yl]-6-methyl-3-pyridyl]oxy]-2-methyl-propan-2-ol] | 0.0641 µM |
| CCc1nc(C)cc(Nc2cc3cc(-c4cc(C)ncc4OCC(C)(C)O)ccn3n2)n1 [Example 202, 1-[[4-[2-[(2-ethyl-6-methyl-pyrimidin-4-yl)amino]pyrazolo[1,5-a]pyridin-5-yl]-6-methyl-3-pyridyl]oxy]-2-methyl-propan-2-ol] | 0.00758 µM |
| Cc1cc(-c2ccn3nc(Nc4cc(C)nc(C)n4)cc3c2)c(OC[C@H]2C[C@@H](O)CO2)cn1 [Example 204, (3R,5R)-5-[[4-[2-[(2,6-dimethylpyrimidin-4-yl)amino]pyrazolo[1,5-a]pyridin-5-yl]-6-methyl-3-pyridyl]oxymethyl]tetrahydrofuran-3-ol] | 0.087 µM |
| COCc1nc(C)cc(Nc2cc3cc(-c4cc(C)ncc4OCC(C)(C)O)ccn3n2)n1 [Example 205, 1-[[4-[2-[[2-(methoxymethyl)-6-methyl-pyrimidin-4-yl]amino]pyrazolo[1,5-a]pyridin-5-yl]-6-methyl-3-pyridyl]oxy]-2-methyl-propan-2-ol] | 0.0181 µM |
| Cc1cc(-c2ccn3nc(Nc4cc(C)c(=O)[nH]n4)cc3c2)c(OCC(C)(C)O)cn1 [Example 208, 3-[[5-[5-(2-hydroxy-2-methyl-propoxy)-2-methyl-4-pyridyl]pyrazolo[1,5-a]pyridin-2-yl]amino]-5-methyl-1H-pyridazin-6-one] | 0.00856 µM |
| Cc1cc(-c2ccn3nc(Nc4cc(C)c(=O)n(C)n4)cc3c2)c(OCC(C)(C)O)cn1 [Example 209, 6-[[5-[5-(2-hydroxy-2-methyl-propoxy)-2-methyl-4-pyridyl]pyrazolo[1,5-a]pyridin-2-yl]amino]-2,4-dimethyl-pyridazin-3-one] | 0.0171 µM |
| Cc1cc(-c2ccn3nc(Nc4cc(C)nc(C)n4)cc3c2)c(OCC2(O)CCC2)cn1 [Example 217, 1-[[4-[2-[(2,6-dimethylpyrimidin-4-yl)amino]pyrazolo[1,5-a]pyridin-5-yl]-6-methyl-3-pyridyl]oxymethyl]cyclobutanol] | 0.0279 µM |
| Cc1cc(-c2ccn3nc(Nc4cc(C)nc(C)n4)cc3c2)c(OC[C@H]2OCC[C@@H]2O)cn1 [Example 218, (2R,3S)-2-[[4-[2-[(2,6-dimethylpyrimidin-4-yl)amino]pyrazolo[1,5-a]pyridin-5-yl]-6-methyl-3-pyridyl]oxymethyl]tetrahydrofuran-3-ol] | 0.00407 µM |
| Cc1cc(-c2ccn3nc(NC(=O)C4CC4)cc3c2)c(OCC2(C#N)CNC2)cn1 [Example 221, N-[5-[5-[(3-cyanoazetidin-3-yl)methoxy]-2-methyl-4-pyridyl]pyrazolo[1,5-a]pyridin-2-yl]cyclopropanecarboxamide] | 0.00234 µM |
| CCc1nc(C)cc(Nc2cc3cc(-c4cc(C)ncc4O[C@H]4CC[C@H](O)CC4)ccn3n2)n1 [Example 224, (1r,4r)-4-((4-(2-((2-ethyl-6-methylpyrimidin-4-yl)amino)pyrazolo[1,5-a]pyridin-5-yl)-6-methylpyridin-3-yl)oxy)cyclohexan-1-ol] | 0.00127 µM |
| COCc1nc(C)cc(Nc2cc3cc(-c4cc(C)ncc4O[C@H]4CC[C@H](O)CC4)ccn3n2)n1 [Example 225, (1r,4r)-4-((4-(2-((2-(methoxymethyl)-6-methylpyrimidin-4-yl)amino)pyrazolo[1,5-a]pyridin-5-yl)-6-methylpyridin-3-yl)oxy)cyclohexan-1-ol] | 0.00343 µM |
| Cc1cc(-c2ccn3nc(Nc4cc(C)c(=O)n(C)n4)cc3c2)c(O[C@H]2CC[C@H](O)CC2)cn1 [Example 226, 6-((5-(5-(((1r,4r)-4-hydroxycyclohexyl)oxy)-2-methylpyridin-4-yl)pyrazolo[1,5-a]pyridin-2-yl)amino)-2,4-dimethylpyridazin-3(2H)-one] | 0.00126 µM |
| CNc1nc(C)cc(Nc2cc3cc(-c4cc(C)ncc4O[C@H]4CC[C@H](O)CC4)ccn3n2)n1 [Example 227, (1r,4r)-4-((6-methyl-4-(2-((6-methyl-2-(methylamino)pyrimidin-4-yl)amino)pyrazolo[1,5-a]pyridin-5-yl)pyridin-3-yl)oxy)cyclohexan-1-ol] | < 0.000847 µM |
| CNc1nc(C)cc(Nc2cc3cc(-c4cc(C)ncc4OCC(C)(C)O)ccn3n2)n1 [Example 228, 2-methyl-1-[[6-methyl-4-[2-[[6-methyl-2-(methylamino)pyrimidin-4-yl]amino]pyrazolo[1,5-a]pyridin-5-yl]-3-pyridyl]oxy]propan-2-ol] | 0.00167 µM |
| Cc1cc(-c2ccn3nc(Nc4cc(C)nc(C5CC5)n4)cc3c2)c(OCC(C)(C)O)cn1 [Example 229, 1-[[4-[2-[(2-cyclopropyl-6-methyl-pyrimidin-4-yl)amino]pyrazolo[1,5-a]pyridin-5-yl]-6-methyl-3-pyridyl]oxy]-2-methyl-propan-2-ol] | 0.00587 µM |
| COC1(COc2cnc(C)cc2-c2ccn3nc(NC(=O)C4CC4)cc3c2)CNC1 [Example 233, N-[5-[5-[(3-methoxyazetidin-3-yl)methoxy]-2-methyl-4-pyridyl]pyrazolo[1,5-a]pyridin-2-yl]cyclopropanecarboxamide] | 0.00309 µM |
| Cc1cc(-c2ccn3nc(NC(=O)[C@@H]4C[C@H]4C)cc3c2)c(OC[C@@]23CN[C@@H](CO2)C3)cn1 [Example 234, (1R,2R)-2-methyl-N-[5-[2-methyl-5-[[(1R,4R)-5-oxa-2-azabicyclo[2.2.1]heptan-4-yl]methoxy]-4-pyridyl]pyrazolo[1,5-a]pyridin-2-yl]cyclopropanecarboxamide] | 0.00837 µM |
| Cc1cc(-c2ccn3nc(Nc4ccc(C5CC5)nn4)cc3c2)c(OC[C@]23C[C@H](CO2)N(C)C3)cn1 [Example 235, N-(6-cyclopropylpyridazin-3-yl)-5-[2-methyl-5-[[(1R,4R)-2-methyl-5-oxa-2-azabicyclo[2.2.1]heptan-4-yl]methoxy]-4-pyridyl]pyrazolo[1,5-a]pyridin-2-amine] | 0.0199 µM |
| Cc1cnc(Nc2cc3cc(-c4cc(C)ncc4OC[C@]45C[C@H](CO4)N(C)C5)ccn3n2)cn1 [Example 236, 5-[2-methyl-5-[[(1R,4R)-2-methyl-5-oxa-2-azabicyclo[2.2.1]heptan-4-yl]methoxy]-4-pyridyl]-N-(5-methylpyrazin-2-yl)pyrazolo[1,5-a]pyridin-2-amine] | 0.0172 µM |
| Cc1cc(-c2ccn3nc(NC(=O)C4CC4)cc3c2)c(OC[C@@]23C[C@@H](CO2)N(C)C3)cn1 [Example 237, N-[5-[2-methyl-5-[[(1S,4S)-2-methyl-5-oxa-2-azabicyclo[2.2.1]heptan-4-yl]methoxy]-4-pyridyl]pyrazolo[1,5-a]pyridin-2-yl]cyclopropanecarboxamide] | 0.0282 µM |
| Cc1cc(-c2ccn3nc(Nc4cc(C)nc(C)n4)cc3c2)c(OC[C@@]23CN[C@@H](CO2)C3)cn1 [Example 238, N-(2,6-dimethylpyrimidin-4-yl)-5-[2-methyl-5-[[(1R,4R)-5-oxa-2-azabicyclo[2.2.1]heptan-4-yl]methoxy]-4-pyridyl]pyrazolo[1,5-a]pyridin-2-amine] | 0.00226 µM |
| Cc1cc(-c2ccn3nc(Nc4ccc5cc[nH]c5n4)cc3c2)c(O[C@H]2CC[C@H](O)CC2)cn1 [Example 239, 4-[[6-methyl-4-[2-(1H-pyrrolo[2,3-b]pyridin-6-ylamino)pyrazolo[1,5-a]pyridin-5-yl]-3-pyridyl]oxy]cyclohexanol] | 0.00245 µM |
| Cc1cc(-c2ccn3nc(Nc4ccc5cc[nH]c5n4)cc3c2)c(OCC(C)(C)O)cn1 [Example 240, 2-methyl-1-[[6-methyl-4-[2-(1H-pyrrolo[2,3-b]pyridin-6-ylamino)pyrazolo[1,5-a]pyridin-5-yl]-3-pyridyl]oxy]propan-2-ol] | 0.016 µM |
| COc1cc(Nc2cc3cc(-c4cc(C)ncc4O[C@H]4CC[C@H](O)CC4)ccn3n2)cc(OC)c1C(=O)NCC(F)(F)F [Example 241, 4-[[5-[5-(4-hydroxycyclohexoxy)-2-methyl-4-pyridyl]pyrazolo[1,5-a]pyridin-2-yl]amino]-2,6-dimethoxy-N-(2,2,2-trifluoroethyl)benzamide] | 0.0401 µM |
| COc1cc(Nc2cc3cc(-c4cc(C)ncc4O[C@H]4CC[C@H](O)CC4)ccn3n2)ccc1C(=O)NC1CC1 [Example 242, N-cyclopropyl-4-[[5-[5-(4-hydroxycyclohexoxy)-2-methyl-4-pyridyl]pyrazolo[1,5-a]pyridin-2-yl]amino]-2-methoxy-benzamide] | 0.0448 µM |
